Literature values, collected in US20050043536A1, “Sulfonamides” (priority 2001, published 2005).

System: rat-isolated aorta

Q: Which contractile activity does the source give for CC(C)[C@H](NC(=O)[C@@H]1CSSC[C@H](NC(=O)[C@H](CC(=O)O)NC(=O)[C@@H]2CCCN2C(=O)[C@@H](NC(=O)[C@@H](N)CCC(=O)O)[C@@H](C)O)C(=O)N[C@@H](Cc2ccccc2)C(=O)N[C@@H](Cc2c[nH]c3ccccc23)C(=O)N[C@@H](CCCCN)C(=O)N[C@@H](Cc2ccc(O)cc2)C(=O)N1)C(=O)O [Human Urotensin-II] here?
A: the most potent contractile agonist identified to date
